The text below walks through data of ChEMBL document CHEMBL1134112, “[3H]MFZ 2-12: a novel radioligand for the dopamine transporter” (Bioorg Med Chem Lett, 2001).

For orientation: pIC50 means the IC50 on a negative log10 scale, so that one unit is a factor of ten. A low value points to a large IC50.

pIC50: −log10 of the molar value.

The test addresses Sodium-dependent dopamine transporter (Homo sapiens, UniProt Q01959). The experiment in a line: Ability to inhibit human dopamine uptake by the human dopamine transporter in EM4 cells stably infected with Flag HA-hDAT. The format is functional, cell-based.

Chain of Sodium-dependent dopamine transporter (Q01959 whole entry): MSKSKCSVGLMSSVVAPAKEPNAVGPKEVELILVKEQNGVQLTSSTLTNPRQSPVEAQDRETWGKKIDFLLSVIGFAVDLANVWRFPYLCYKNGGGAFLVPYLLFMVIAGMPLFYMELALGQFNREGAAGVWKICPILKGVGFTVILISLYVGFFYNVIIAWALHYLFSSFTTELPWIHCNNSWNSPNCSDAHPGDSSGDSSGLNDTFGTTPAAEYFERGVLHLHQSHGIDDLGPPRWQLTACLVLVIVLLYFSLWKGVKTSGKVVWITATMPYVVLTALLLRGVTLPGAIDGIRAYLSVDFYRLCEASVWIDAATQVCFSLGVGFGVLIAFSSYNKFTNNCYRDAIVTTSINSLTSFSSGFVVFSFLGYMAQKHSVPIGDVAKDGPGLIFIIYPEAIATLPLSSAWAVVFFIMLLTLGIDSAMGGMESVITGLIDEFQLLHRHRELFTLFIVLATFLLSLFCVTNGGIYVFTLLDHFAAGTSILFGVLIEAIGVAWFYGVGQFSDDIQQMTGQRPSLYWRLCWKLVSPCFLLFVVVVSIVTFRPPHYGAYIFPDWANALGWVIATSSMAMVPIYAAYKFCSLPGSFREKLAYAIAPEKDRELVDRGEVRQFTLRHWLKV

In turn, `COC(=O)[C@@H]1C2CCC(C[C@@H]1c1ccc(Cl)c(Cl)c1)N2` (some centres not stated) gave a pIC50 of 8.85.
The molecule `COC(=O)[C@@H]1C2CCC(C[C@@H]1c1ccc(Cl)c(Cl)c1)N2C` (some centres not stated) showed a pIC50 of 8.96.
